Experimental data as given in ChEMBL document CHEMBL1136094, “Novel, potent and selective cyclin D1/CDK4 inhibitors: indolo[6,7-a]pyrrolo[3,4-c]carbazoles” (Bioorg Med Chem Lett, 2003).

How the values were obtained:
[1] = molecular target: CaM kinase II (Homo sapiens, UniProt Q13557+Q13555+Q13554+Q9UQM7); test: Inhibitory activity against Calcium/calmodulin-dependent protein kinase type II; assay type: protein assay
[2] = molecular target: T1, Cyclin-dependent kinase 4/cyclin D1 (Homo sapiens, UniProt P11802); test: Inhibitory activity against Cyclin D1-cyclin-dependent kinase 4 in enzymatic assay by measuring phosphorylation of Rb21; assay type: protein-complex assay
[3] = molecular target: cAMP-dependent protein kinase (PKA) (Homo sapiens, UniProt P22694+P17612+P22612); test: Inhibitory activity against Protein kinase A (Histone); assay type: protein assay
[4] = test system: NCI-H460; test: In vitro antiproliferative activity against human carcinoma cell line H460 (lung); assay type: functional, cell-based
[5] = molecular target: T1, Cyclin-dependent kinase 4/cyclin D1; test: Inhibitory activity against Cyclin D1-cyclin-dependent kinase 4 in enzymatic assay by measuring phosphorylation of RbING; assay type: protein-complex assay
[6] = molecular target: Cyclin-dependent kinase 2/cyclin E (Homo sapiens, UniProt P24941); test: Inhibitory activity against Cyclin E-cyclin-dependent kinase 2 in enzymatic assay by measuring phosphorylation of RbING; assay type: protein-complex assay
[7] = test system: HCT-116; test: In vitro antiproliferative activity against human carcinoma cell line HCT116 (colon); assay type: functional, cell-based

T1 sequence (P11802 whole entry): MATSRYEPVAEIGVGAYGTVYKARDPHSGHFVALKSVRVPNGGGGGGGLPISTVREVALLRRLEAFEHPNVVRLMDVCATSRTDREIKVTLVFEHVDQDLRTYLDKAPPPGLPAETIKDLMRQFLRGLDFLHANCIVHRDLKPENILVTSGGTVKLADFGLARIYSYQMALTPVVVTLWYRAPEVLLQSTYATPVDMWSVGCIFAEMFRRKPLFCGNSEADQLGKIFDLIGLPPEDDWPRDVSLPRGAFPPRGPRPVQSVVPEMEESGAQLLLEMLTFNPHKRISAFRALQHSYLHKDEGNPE
T1 sequence (P24385 whole entry, further chain): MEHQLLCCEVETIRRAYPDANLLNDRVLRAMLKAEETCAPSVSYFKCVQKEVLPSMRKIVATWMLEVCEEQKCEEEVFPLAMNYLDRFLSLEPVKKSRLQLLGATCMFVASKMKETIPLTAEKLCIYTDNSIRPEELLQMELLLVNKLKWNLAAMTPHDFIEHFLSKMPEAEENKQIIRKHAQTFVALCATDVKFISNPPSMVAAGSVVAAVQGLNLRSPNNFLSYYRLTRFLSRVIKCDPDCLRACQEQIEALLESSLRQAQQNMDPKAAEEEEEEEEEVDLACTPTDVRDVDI

Structure (SMILES)	IC50 [1]	IC50 [2]	IC50 [3]	IC50 [4]	IC50 [5]	IC50 [6]	IC50 [7]
COc1ccc2c3c4c(c5c(ccc6ccn(C)c65)c3n(CCN3CCCCC3)c2c1)C(=O)NC4=O	> 20000 nM	33 nM	> 20000 nM	2470 nM	135 nM	928 nM	3740 nM
CCn1ccc2ccc3c(c4c(c5c6ccccc6n(CCCO)c35)C(=O)NC4=O)c21	–	90 nM	5310 nM	1770 nM	134 nM	400 nM	1200 nM
O=C1NC(=O)c2c1c1c(ccc3cc[nH]c31)c1[nH]c3cc(OCc4ccccc4)ccc3c21	–	378 nM	–	> 10000 nM	187 nM	–	> 10000 nM
COc1ccc2c3c4c(c5c(ccc6ccn(C)c65)c3n(CCCN3CCSCC3)c2c1)C(=O)NC4=O	> 20000 nM	47 nM	> 20000 nM	2110 nM	190 nM	1260 nM	2020 nM
Cc1cc2ccn(C)c2c2c3c(c4c5ccccc5n(CCCCO)c4c12)C(=O)NC3=O	–	–	11700 nM	> 10000 nM	> 2000 nM	–	> 10000 nM
Cn1ccc2ccc3c4[nH]c5cccc(Br)c5c4c4c(c3c21)C(=O)NC4=O	–	136 nM	> 20000 nM	3520 nM	171 nM	–	4710 nM
COc1ccc2[nH]c3c4ccc5ccn(C)c5c4c4c(c3c2c1)C(=O)NC4=O	–	680 nM	> 20000 nM	> 10000 nM	519 nM	> 2000 nM	> 10000 nM
Cn1ccc2cc(F)c3c(c4c(c5c6ccccc6n(CCCO)c53)C(=O)NC4=O)c21	–	448 nM	–	2480 nM	346 nM	–	2390 nM
Cn1ccc2ccc3c4[nH]c5cccc(CO)c5c4c4c(c3c21)C(=O)NC4=O	–	216 nM	> 20000 nM	> 10000 nM	155 nM	> 2000 nM	> 10000 nM
Cn1ccc2ccc3c(c4c(c5c6ccccc6n(CCCO)c35)C(=O)NC4=O)c21	–	42 nM	> 2000 nM	1130 nM	96 nM	67 nM	1360 nM
Cn1ccc2ccc3c4[nH]c5cc(OCc6ccccc6)ccc5c4c4c(c3c21)C(=O)NC4=O	–	25 nM	3290 nM	> 10000 nM	123 nM	328 nM	6520 nM
Cn1ccc2ccc3c4[nH]c5cc(C#N)ccc5c4c4c(c3c21)C(=O)NC4=O	–	11 nM	> 20000 nM	> 10000 nM	29 nM	10 nM	> 10000 nM
Cc1ccc2[nH]c3c4ccc5ccn(C)c5c4c4c(c3c2c1)C(=O)NC4=O	–	407 nM	4060 nM	3350 nM	393 nM	1070 nM	2870 nM
CCc1ccc2c(c1)[nH]c1c3ccc4ccn(C)c4c3c3c(c21)C(=O)NC3=O	–	22 nM	> 20000 nM	7490 nM	101 nM	–	3510 nM
Cn1ccc2ccc3c4[nH]c5ccc(C(F)(F)F)cc5c4c4c(c3c21)C(=O)NC4=O	–	–	–	7850 nM	> 2000 nM	–	7040 nM
O=C1NC(=O)c2c1c1c3ccccc3[nH]c1c1[nH]c3ccccc3c21 [STAUROSPORINE AGLYCON]	–	–	–	590 nM	140 nM	897 nM	850 nM
Cn1ccc2ccc3c4[nH]c5ccc(Br)cc5c4c4c(c3c21)C(=O)NC4=O	–	–	–	–	> 2000 nM	–	–
Cc1cc2ccn(C)c2c2c3c(c4c5ccccc5n(CCCO)c4c12)C(=O)NC3=O	–	–	–	4750 nM	673 nM	–	3850 nM
Cn1ccc2ccc3c4[nH]c5c(CCCO)cccc5c4c4c(c3c21)C(=O)NC4=O	–	40 nM	> 20000 nM	2350 nM	168 nM	558 nM	3020 nM
COc1cccc2[nH]c3c4ccc5ccn(C)c5c4c4c(c3c12)C(=O)NC4=O	–	–	–	> 10000 nM	> 2000 nM	–	> 10000 nM

Continued by falling IC50 [5], values first:

IC50 [1]	IC50 [2]	IC50 [3]	IC50 [4]	IC50 [5]	IC50 [6]	IC50 [7]	Structure (SMILES)
–	–	–	13800 nM	93 nM	–	17100 nM	Cn1ccc2ccc3c4[nH]c5c(Br)cccc5c4c4c(c3c21)C(=O)NC4=O
–	25 nM	> 20000 nM	2420 nM	92 nM	> 2000 nM	8780 nM	Cc1cc2ccn(C)c2c2c3c(c4c5ccc(C(F)(F)F)cc5[nH]c4c12)C(=O)NC3=O
–	45 nM	3900 nM	> 10000 nM	92 nM	267 nM	4700 nM	Cc1cc2ccn(C)c2c2c3c(c4c5ccccc5n(C)c4c12)C(=O)NC3=O
–	39 nM	> 20000 nM	> 10000 nM	84 nM	> 200 nM	> 10000 nM	Cn1ccc2ccc3c4[nH]c5ccc(F)cc5c4c4c(c3c21)C(=O)NC4=O
–	9 nM	> 20000 nM	3510 nM	76 nM	225 nM	> 10000 nM	Cn1ccc2ccc3c4[nH]c5cc(C(F)(F)F)ccc5c4c4c(c3c21)C(=O)NC4=O
–	81 nM	> 20000 nM	> 10000 nM	71 nM	> 2000 nM	> 2000 nM	Cn1ccc2ccc3c4[nH]c5cccc(F)c5c4c4c(c3c21)C(=O)NC4=O
–	16 nM	> 20000 nM	2900 nM	67 nM	86 nM	3490 nM	Cn1ccc2cc(F)c3c4[nH]c5ccccc5c4c4c(c3c21)C(=O)NC4=O
–	36 nM	11400 nM	1920 nM	67 nM	125 nM	2160 nM	COc1ccc2c(c1)[nH]c1c3ccc4cc[nH]c4c3c3c(c21)C(=O)NC3=O
–	12 nM	> 20000 nM	1070 nM	66 nM	8 nM	750 nM	O=C1NC(=O)c2c1c1c(ccc3cc[nH]c31)c1c2c2ccccc2n1CCCO
–	40 nM	> 20000 nM	2710 nM	62 nM	> 2000 nM	1000 nM	COc1cccc2c1[nH]c1c3ccc4ccn(C)c4c3c3c(c21)C(=O)NC3=O
–	19 nM	> 2000 nM	> 10000 nM	59 nM	–	4520 nM	CCn1ccc2ccc3c4[nH]c5ccccc5c4c4c(c3c21)C(=O)NC4=O
382 nM	–	16600 nM	1480 nM	52 nM	1670 nM	1380 nM	CN1CCN(CCCc2cccc3c2[nH]c2c4ccc5ccn(C)c5c4c4c(c32)C(=O)NC4=O)CC1
–	6 nM	> 20000 nM	1020 nM	50 nM	23 nM	580 nM	Cc1cc2ccn(C)c2c2c3c(c4c5ccc(F)cc5[nH]c4c12)C(=O)NC3=O
301 nM	15 nM	12900 nM	1110 nM	49 nM	2030 nM	1040 nM	Cn1ccc2ccc3c4[nH]c5c(CCN6CCNCC6)cccc5c4c4c(c3c21)C(=O)NC4=O
–	18 nM	> 20000 nM	3410 nM	48 nM	320 nM	3840 nM	Cc1ccc2c(c1)[nH]c1c3ccc4ccn(C)c4c3c3c(c21)C(=O)NC3=O
–	24 nM	1620 nM	1320 nM	47 nM	101 nM	4070 nM	COc1ccc2c3c4c(c5c(ccc6ccn(C)c65)c3n(CCO)c2c1)C(=O)NC4=O
–	10 nM	> 20000 nM	3200 nM	44 nM	324 nM	2350 nM	CCOc1ccc2c(c1)[nH]c1c3ccc4ccn(C)c4c3c3c(c21)C(=O)NC3=O
–	7 nM	> 20000 nM	1300 nM	42 nM	57 nM	1430 nM	COc1ccc2c(c1)[nH]c1c2c2c(c3c1c(C)cc1ccn(C)c13)C(=O)NC2=O
–	11 nM	> 20000 nM	> 10000 nM	38 nM	9 nM	> 10000 nM	Cn1ccc2ccc3c4[nH]c5cc(F)ccc5c4c4c(c3c21)C(=O)NC4=O
–	< 13 nM	> 20000 nM	720 nM	38 nM	75 nM	1080 nM	Cn1ccc2ccc3c4[nH]c5cc(Br)ccc5c4c4c(c3c21)C(=O)NC4=O
–	17 nM	949 nM	230 nM	37 nM	6 nM	170 nM	O=C1NC(=O)c2c1c1c(ccc3cc[nH]c31)c1[nH]c3cc(O)ccc3c21
–	22 nM	> 2000 nM	1430 nM	36 nM	64 nM	1440 nM	O=C1NC(=O)c2c1c1c(ccc3cc[nH]c31)c1[nH]c3ccccc3c21
95 nM	10 nM	6120 nM	330 nM	33 nM	265 nM	170 nM	Cn1ccc2ccc3c4[nH]c5c(CCNCCO)cccc5c4c4c(c3c21)C(=O)NC4=O
–	2 nM	> 20000 nM	2260 nM	28 nM	70 nM	1980 nM	Cc1cc2ccn(C)c2c2c3c(c4c5ccccc5[nH]c4c12)C(=O)NC3=O
